Results as given in ChEMBL document CHEMBL4411303, “Synthesis of tetrazole derivatives bearing pyrrolidine scaffold and evaluation of their antifungal activity against Candida albicans” (Eur J Med Chem, 2019).
The source made the active and inactive calls. No cut-off for these calls is given here.

How the values were obtained:
Candida albicans [1] = test: Antifungal activity against Candida albicans ATCC 90028 assessed as planktonic growth inhibition at 2.77 uM after 48 hrs by M27-A3 protocol based method relative to control; format: functional; details: ATCC 90028, 48 h, read-out: GI
Candida albicans [2] = test: Antifungal activity against Candida albicans ATCC 90028 assessed as planktonic growth inhibition at 22.13 uM after 48 hrs by M27-A3 protocol based method relative to control; format: functional; details: ATCC 90028, 48 h, read-out: GI
Candida albicans [3] = test: Fungicidal activity against Candida albicans ATCC 90028 assessed as log reduction in fungal load incubated for 48 hrs followed by replating on sabouraud dextrose agar plate and measured after 48 hrs; format: functional
Candida albicans [4] = test: Antifungal activity against Candida albicans ATCC 90028 assessed as planktonic growth inhibition at 11.07 uM after 48 hrs by M27-A3 protocol based method relative to control; format: functional; details: ATCC 90028, 48 h, read-out: GI
Candida albicans [5] = test: Antifungal activity against Candida albicans ATCC 90028 assessed as planktonic growth inhibition at 44.26 uM after 48 hrs by M27-A3 protocol based method relative to control; format: functional; details: ATCC 90028, 48 h, read-out: GI
Candida albicans [6] = test: Antifungal activity against Candida albicans ATCC 90028 assessed as planktonic growth inhibition at 0.69 uM after 48 hrs by M27-A3 protocol based method relative to control; format: functional; details: ATCC 90028, 48 h, read-out: GI
Candida albicans [7] = test: Antifungal activity against Candida albicans ATCC 90028 assessed as planktonic growth inhibition at 5.53 uM after 48 hrs by M27-A3 protocol based method relative to control; format: functional; details: ATCC 90028, 48 h, read-out: GI
Candida albicans [8] = test: Antifungal activity against Candida albicans ATCC 90028 assessed as planktonic growth inhibition at 0.17 uM after 48 hrs by M27-A3 protocol based method relative to control; format: functional; details: ATCC 90028, 48 h, read-out: GI
Candida albicans [9] = test: Antifungal activity against Candida albicans ATCC 90028 assessed as planktonic growth inhibition at 1.38 uM after 48 hrs by M27-A3 protocol based method relative to control; format: functional; details: ATCC 90028, 48 h, read-out: GI
Candida albicans [10] = test: Antifungal activity against Candida albicans ATCC 90028 assessed as planktonic growth inhibition at 0.35 uM after 48 hrs by M27-A3 protocol based method relative to control; format: functional; details: ATCC 90028, 48 h, read-out: GI
Candida albicans [11] = test: Antifungal activity against Candida albicans ATCC 90028 assessed as planktonic growth inhibition at 0.09 uM after 48 hrs by M27-A3 protocol based method relative to control; format: functional; details: ATCC 90028, 48 h, read-out: GI
Candida albicans [12] = test: Antifungal activity against Candida albicans ATCC 90028 assessed as planktonic growth inhibition at 1.42 uM after 48 hrs by M27-A3 protocol based method relative to control; format: functional; details: ATCC 90028, 48 h, read-out: GI
Candida albicans [13] = test: Antifungal activity against Candida albicans ATCC 90028 assessed as planktonic growth inhibition at 11.38 uM after 48 hrs by M27-A3 protocol based method relative to control; format: functional; details: ATCC 90028, 48 h, read-out: GI
Candida albicans [14] = test: Antifungal activity against Candida albicans ATCC 90028 assessed as planktonic growth inhibition at 0.18 uM after 48 hrs by M27-A3 protocol based method relative to control; format: functional; details: ATCC 90028, 48 h, read-out: GI
Candida albicans [15] = test: Antifungal activity against Candida albicans ATCC 90028 assessed as planktonic growth inhibition at 22.76 uM after 48 hrs by M27-A3 protocol based method relative to control; format: functional; details: ATCC 90028, 48 h, read-out: GI
Candida albicans [16] = test: Antifungal activity against Candida albicans ATCC 90028 assessed as planktonic growth inhibition at 0.36 uM after 48 hrs by M27-A3 protocol based method relative to control; format: functional; details: ATCC 90028, 48 h, read-out: GI
Candida albicans [17] = test: Cell cycle arrest in Candida albicans ATCC 90028 assessed as accumulation at G0/G1-phase by propidium iodide staining based flow cytometry; format: functional, organism-based
Candida albicans [18] = test: Antifungal activity against Candida albicans ATCC 90028 infected in Galleria mellonella larvae assessed as inhibition of fungus filamentation at 10 uL measured at 24 hrs interval for 144 hrs by HE staining based microscopic analysis; format: functional, organism-based
Candida albicans [19] = test: Antifungal activity against Candida albicans ATCC 90028 assessed as planktonic growth inhibition at 2.85 uM after 48 hrs by M27-A3 protocol based method relative to control; format: functional; details: ATCC 90028, 48 h, read-out: GI
Candida albicans [20] = test: Antifungal activity against Candida albicans ATCC 90028 infected in Galleria mellonella larvae assessed as induction of pathogen entrapping by haemocytes at 10 uL measured at 24 hrs interval for 144 hrs by HE staining based microscopic analysis; format: functional, organism-based
Candida albicans [21] = test: Antifungal activity against Candida albicans ATCC 90028 assessed as planktonic growth inhibition at 45.53 uM after 48 hrs by M27-A3 protocol based method relative to control; format: functional; details: ATCC 90028, 48 h, read-out: GI
Candida albicans [22] = test: Antifungal activity against Candida albicans ATCC 90028 assessed as planktonic growth inhibition at 5.69 uM after 48 hrs by M27-A3 protocol based method relative to control; format: functional; details: ATCC 90028, 48 h, read-out: GI
Candida albicans [23] = test: Antifungal activity against Candida albicans ATCC 90028 assessed as planktonic growth inhibition at 0.71 uM after 48 hrs by M27-A3 protocol based method relative to control; format: functional; details: ATCC 90028, 48 h, read-out: GI

Compound	inhibition of growth at 2.77 µM (Candida albicans [1])	inhibition of growth at 22.13 µM (Candida albicans [2])	log(activity) (Candida albicans [3])	inhibition of growth at 11.07 µM (Candida albicans [4])	inhibition of growth at 44.26 µM (Candida albicans [5])	inhibition of growth at 0.69 µM (Candida albicans [6])	inhibition of growth at 5.53 µM (Candida albicans [7])	inhibition of growth at 0.17 µM (Candida albicans [8])	inhibition of growth at 1.38 µM (Candida albicans [9])	inhibition of growth at 0.35 µM (Candida albicans [10])	inhibition of growth at 0.09 µM (Candida albicans [11])	other results
Cc1ccc(-c2nnn(CCCN3CCCC3c3cccc(C)c3)n2)cc1 (stereo unspecified)	99.3%	98.7%	-0.4	98.8%	99%	98.9%	99.1%	98.9%	98.9%	99%	98.9%	–
Cc1ccc(-c2nnn(CCCN3CCCC3c3ccc(C)cc3)n2)cc1 (stereo unspecified)	99%	99.3%	-0.6	98.9%	99.6%	99.2%	99.3%	99.3%	99%	99.1%	99%	–
Fc1ccc(C2CCCN2CCCn2nnc(-c3ccccc3)n2)cc1 (stereo unspecified)	–	–	-0.5	–	–	–	–	–	–	–	99.2%	inhibition of growth at 1.42 µM (Candida albicans [12]): 99.5%; inhibition of growth at 11.38 µM (Candida albicans [13]): 99.3%; inhibition of growth at 0.18 µM (Candida albicans [14]): 99.2%; inhibition of growth at 22.76 µM (Candida albicans [15]): 99.2%; inhibition of growth at 0.36 µM (Candida albicans [16]): 99.2%; Activity (Candida albicans [17]): Active; inhibition (Candida albicans [18]): Active; inhibition of growth at 2.85 µM (Candida albicans [19]): 99.3%; Activity (Candida albicans [20]): Active; inhibition of growth at 45.53 µM (Candida albicans [21]): 99.5%; inhibition of growth at 5.69 µM (Candida albicans [22]): 99.3%; inhibition of growth at 0.71 µM (Candida albicans [23]): 99.3%
